Measurements published in US8492310B2, “Herbicidal compositions containing benzoylpyrazole compounds” (priority 2008, dated 2013).
Where two headings read alike, the source gives them in different places.

Tests used:
Format in all cases: in vivo
[1] = test system: crabgrass (Digitaria sanguinalis L.); assay: Foliar treatment pot test, visual growth inhibition rate, crabgrass (DS); conditions: Digitaria sanguinalis, foliar; for inhibition at […]: 2.5 g/ha
Text: (§1) When the herbicidal activity in a case where two active ingredients are combined, is larger than the simple sum of the respective herbicidal activities of the two active ingredients (the expected activity), it is called a synergistic effect. The activity expected by the combination of two active ingredients can be calculated as follows (Colby S. R., “Weed”, vol. 15, p. 20-22, 1967). E=α+β−(α×β÷100) where
(§2) Upland field soil was put into a 1/1,000,000 hectare pot, and seeds of various plants (barnyardgrass (Echinochloa crus-qalli L.), crabgrass (Digitaria sanguinalis L.), giant foxtail (Setaria faberi Herrm.), velvetleaf (Abutilon theophrasti MEDIC.) and prickly sida (Sida spinosa L.)) were sown. When the respective plants reached predetermined leaf stage, herbicidal compositions in predetermined amounts were diluted with water in an amount corresponding to 300 L/ha and applied for foliar treatment by a small sprayer.
(§3) Further, in accordance with the above Colby's formula, the growth inhibition rate (calculated value) was calculated. In Tables, with respect to the compound Q, Compound Nos. in Table 1 are described, and with respect to other herbicidal compounds, common names are described. Further, in Tables, barnyardgrass is represented by “EC”, crabgrass by “DS”, giant foxtail by “SF”, velvetleaf by “AT”, and prickly sida by “SS”.

[2] = test system: prickly sida (Sida spinosa L.); assay: Foliar treatment pot test, visual growth inhibition rate, prickly sida (SS); conditions: Sida spinosa, foliar, 336 h, 3.0-3.3 leaf stage, 14 DAT, read-out: Growth inhibition rate (%) of SS Measured value
Text: as §1, §2, §3

[3] = test system: velvetleaf (Abutilon theophrasti MEDIC.); assay: Foliar treatment pot test, visual growth inhibition rate, velvetleaf (AT); conditions: Abutilon theophrasti, foliar
Text: as §1, §2, §3

[4] = 504 h, 4.0-5.1 leaf stage, 21 DAT, read-out: Growth inhibition rate (%) of DS Measured value
[5] = 504 h, 3.0-3.5 leaf stage, 21 DAT, read-out: Growth inhibition rate (%) of AT Measured value
[6] = 528 h, 4.5-5.0 leaf stage, 22 DAT, read-out: Growth inhibition rate (%) of AT Measured value

For `CCOCN(C(=O)CCl)c1c(C)cccc1CC` [Acetochlor, acetochlor], the inhibition at 63 g/ha ([1]; 168 h, 3.5-5.0 leaf stage, 7 DAT, 63 g/ha, read-out: Growth inhibition rate (%) of DS Measured value) was 0%, the inhibition at 125 g/ha ([1]; 168 h, 3.5-5.0 leaf stage, 7 DAT, 125 g/ha, read-out: Growth inhibition rate (%) of DS Measured value) was 0% and the inhibition at 250 g/ha ([1]; 168 h, 3.5-5.0 leaf stage, 7 DAT, 250 g/ha, read-out: Growth inhibition rate (%) of DS Measured value) was 0%. The inhibition at 500 g/ha ([1]; 168 h, 3.5-5.0 leaf stage, 7 DAT, 500 g/ha, read-out: Growth inhibition rate (%) of DS Measured value) was 0%, the inhibition at 750 g/ha ([1]; 168 h, 3.5-5.0 leaf stage, 7 DAT, 750 g/ha, read-out: Growth inhibition rate (%) of DS Measured value) was 10% and the inhibition at 150 g/ha ([1]; 336 h, 4.0-5.0 leaf stage, 14 DAT, read-out: Growth inhibition rate (%) of DS Measured value) was 0%. It also gave an inhibition at 400 g/ha ([1]; 504 h, 3.5-4.3 leaf stage, 21 DAT, 400 g/ha, read-out: Growth inhibition rate (%) of DS Measured value) of 0%, an inhibition at 150 g/ha [1, 4] of 0% and an inhibition at 100 g/ha ([2]; 100 g/ha) of 0%. For the same molecule, the inhibition at 200 g/ha ([2]; 200 g/ha) was 0%, the inhibition at 400 g/ha ([2]; 400 g/ha) was 10% and the inhibition at 800 g/ha ([2]; 800 g/ha) was 30%. For the same molecule, the inhibition at 63 g/ha ([3]; 168 h, 2.3-3.5 leaf stage, 7 DAT, 63 g/ha, read-out: Growth inhibition rate (%) of AT Measured value) was 0%, the inhibition at 125 g/ha ([3]; 168 h, 2.3-3.5 leaf stage, 7 DAT, 125 g/ha, read-out: Growth inhibition rate (%) of AT Measured value) was 0% and the inhibition at 250 g/ha ([3]; 168 h, 2.3-3.5 leaf stage, 7 DAT, 250 g/ha, read-out: Growth inhibition rate (%) of AT Measured value) was 0%. For the same molecule, the inhibition at 500 g/ha ([3]; 168 h, 2.3-3.5 leaf stage, 7 DAT, 500 g/ha, read-out: Growth inhibition rate (%) of AT Measured value) was 10%, the inhibition at 750 g/ha ([3]; 168 h, 2.3-3.5 leaf stage, 7 DAT, 750 g/ha, read-out: Growth inhibition rate (%) of AT Measured value) was 0% and the inhibition at 150 g/ha ([3]; 336 h, 3.0-4.0 leaf stage, 14 DAT, 150 g/ha, read-out: Growth inhibition rate (%) of AT Measured value) was 0%. It also gave an inhibition at 300 g/ha ([3]; 480 h, 3.1-3.4 leaf stage, 20 DAT, 300 g/ha, read-out: Growth inhibition rate (%) of AT Measured value) of 0% and an inhibition at 400 g/ha ([3]; 504 h, 3.0-3.8 leaf stage, 21 DAT, 400 g/ha, read-out: Growth inhibition rate (%) of AT Measured value) of 0%.

For `COc1nc(C)nc(NC(=O)NS(=O)(=O)c2ccccc2CCC(F)(F)F)n1` [Prosulfuron, prosulfuron], the inhibition at 1.25 g/ha ([1]; 504 h, 4.0-5.1 leaf stage, 21 DAT, 1.25 g/ha, read-out: Growth inhibition rate (%) of DS Measured value) was 10%, the inhibition at […] [1, 4] was 5% and the inhibition at 5 g/ha [1, 4] was 0%. The inhibition at 5 g/ha ([1]; 528 h, 4.0-5.0 leaf stage, 22 DAT, read-out: Growth inhibition rate (%) of DS Measured value) was 0%, the inhibition at […] ([1]; 528 h, 4.8-5.5 leaf stage, 22 DAT, read-out: Growth inhibition rate (%) of DS Measured value) was 0% and the inhibition at 10 g/ha ([1]; 552 h, 4.0-5.1 leaf stage, 23 DAT, 10 g/ha, read-out: Growth inhibition rate (%) of DS Measured value) was 0%. For the same molecule, the inhibition at 10 g/ha [3, 5] was 100%, the inhibition at 1.25 g/ha ([3]; 504 h, 4.0-4.3 leaf stage, 21 DAT, 1.25 g/ha, read-out: Growth inhibition rate (%) of AT Measured value) was 50% and the inhibition at 5 g/ha ([3]; 504 h, 4.0-4.3 leaf stage, 21 DAT, read-out: Growth inhibition rate (%) of AT Measured value) was 95%. For the same molecule, the inhibition at 5 g/ha ([3]; 528 h, 4.1-4.5 leaf stage, 22 DAT, read-out: Growth inhibition rate (%) of AT Measured value) was 90%, the inhibition at 5 g/ha [3, 6] was 0% and the inhibition at 10 g/ha [3, 6] was 0%.

Molecule `Cn1nc(C(F)(F)F)c(CS(=O)(=O)C2=NOC(C)(C)C2)c1OC(F)F` [Pyroxasulfone, pyroxasulfone] has an inhibition at 50 g/ha ([1]; 312 h, 4.4-5.0 leaf stage, 13 DAT, 50 g/ha, read-out: Growth inhibition rate (%) of DS Measured value) of 0%, an inhibition at 100 g/ha ([1]; 336 h, 4.0-5.0 leaf stage, 14 DAT, 100 g/ha, read-out: Growth inhibition rate (%) of DS Measured value) of 5% and an inhibition at 50 g/ha ([1]; 504 h, 4.0-5.0 leaf stage, 21 DAT, 50 g/ha, read-out: Growth inhibition rate (%) of DS Measured value) of 10%. For the same molecule, the inhibition at 50 g/ha ([3]; 312 h, 3.3-4.2 leaf stage, 13 DAT, read-out: Growth inhibition rate (%) of AT Measured value) was 5%, the inhibition at 50 g/ha ([3]; 336 h, 3.0-4.0 leaf stage, 14 DAT, read-out: Growth inhibition rate (%) of AT Measured value) was 0% and the inhibition at 50 g/ha [3, 5] was 0%.

`CCS(=O)(=O)c1cccnc1S(=O)(=O)NC(=O)Nc1nc(OC)cc(OC)n1` [Rimsulfuron, rimsulfuron] showed an inhibition at 15 g/ha ([1]; 552 h, 4.0-5.1 leaf stage, 23 DAT, 15 g/ha, read-out: Growth inhibition rate (%) of DS Measured value) of 98%, an inhibition at 20 g/ha ([3]; 504 h, 3.5-4.3 leaf stage, 21 DAT, 20 g/ha, read-out: Growth inhibition rate (%) of AT Measured value) of 99% and an inhibition at 15 g/ha ([3]; 552 h, 3.0-3.5 leaf stage, 23 DAT, 15 g/ha, read-out: Growth inhibition rate (%) of AT Measured value) of 70%.

`CS(=O)(=O)c1ccc(C(=O)C2C(=O)CCCC2=O)c(Cl)c1` [Sulcotrione] gave an inhibition at 25 g/ha ([1]; 480 h, read-out: Growth inhibition rate (%) of DS Measured value, 3.7-4.0 leaf stage, 20 DAT, 25 g/ha) of 45%, an inhibition at 50 g/ha ([1]; 480 h, read-out: Growth inhibition rate (%) of DS Measured value, 3.7-4.0 leaf stage, 20 DAT, 50 g/ha) of 60% and an inhibition at 100 g/ha ([1]; 480 h, read-out: Growth inhibition rate (%) of DS Measured value, 3.7-4.0 leaf stage, 20 DAT, 100 g/ha) of 80%. The inhibition at 50 g/ha ([1]; 480 h, read-out: Growth inhibition rate (%) of DS Measured value, 5.1-5.2 leaf stage, 20 DAT, 50 g/ha) was 60%, the inhibition at 100 g/ha ([1]; 480 h, read-out: Growth inhibition rate (%) of DS Measured value, 5.1-5.2 leaf stage, 20 DAT, 100 g/ha) was 95% and the inhibition at 31 g/ha ([3]; 576 h, read-out: Growth inhibition rate (%) of AT Measured value, 3.2-4.1 leaf stage, 24 DAT, 31 g/ha) was 60%.
